Patent publication US7572826B2, “Thiophene-carboxamide derivatives and their use as inhibitors of the enzyme IKK-2” (AstraZeneca AB, priority 2003, dated 2009)

Assays:
[1] = system: human peripheral blood mononuclear cells (PBMCs); experiment: Inhibition of LPS-induced TNFα production by PBMCs; assay type: cell-based; conditions: PBMC, inhibition of LPS-stimulated TNFα production
Method: The effect of test compounds on nuclear factor kappa B (NFκB) activation in cells was assessed by measuring inhibition of tumour necrosis factor alpha (TNFα) production by human peripheral blood mononuclear cells (PBMCs) stimulated by bacterial lipopolysaccharide (LPS).
Human blood (250 ml), anticoagulated with heparin, was collected from healthy volunteers. Aliquots of blood (25 ml) were layered on 20 ml Lymphoprep (Nycomed) in 50 ml polypropylene centrifuge tubes. The tubes were centrifuged (Sorval RT600B) at 2,500 rpm for 30 minutes. The cloudy layer containing PBMCs was collected with a fine tipped Pasteur pipette, transferred into 8 clean polypropylene centrifuge tubes (approximately 10 ml per tube) and diluted to 50 ml with phosphate-buffered saline (PBS). These tubes were centrifuged at 2,000 rpm for 8 minutes. PBS (10 ml) was added to each cell pellet and the cells were gently re-suspended. The cells were pooled in 4 centrifuge tubes, PBS was added to each tube to make the volume up to 50 ml and the tubes were centrifuged at 1,400 rpm for 8 minutes. The cell pellets were again re-suspended in 10 ml PBS, pooled in 2 centrige tubes, the volume made up to 50 ml with PBS and the tubes centrifuged at 900 rpm for 10 minutes.
The final cell pellets were gently re-suspended in 10 ml tissue culture medium (RPMI containing 1% heat-inactivated human serum, L-glutamine and penicillin and streptomycin), combined into 1 tube and the volume made up to 30 ml with RPMI medium. The cells were counted and the cell suspension was diluted to 2.6×10^6 cells/ml.
Test compounds were dissolved in DMSO to 10 mM and diluted 1 in 250 (40 μM) with RPMI medium. The compounds were then serially diluted 1 in 3 with 0.4% DMSO in RPMI medium. Aliquots of test compound dilutions (50 μl) were transferred to the wells of a 96-well plate. Control wells contained 0.4% DMSO in RPMI instead of compound.
Aliquots of the cell suspension (100 μl) were added to each well and the plates incubated at 37° C. for 30 minutes. 50 μl of 40 μg/ml LPS (Sigma, LA130) was added to wells to stimulate TNFα production by the cells and the plates were incubated overnight at 37° C. RPMI medium (50 μl) was added to negative control wells instead of LPS. The final incubation volume was 200 μl.
Plates were centrifuged for 4 minutes at 1,200 rpm and supernatants were removed for measurement of TNFα concentration. Viability of the remaining cell pellet was measured using WST-1 reagent (Boehringer Mannheim, 1044807). […] The absorbance at 450 nm was then measured using a 96-well plate spectrophotometer.
TNFα in the supernatants (freshly harvested or stored frozen at −20° C.) were measured using an enzyme-linked immunosorbant assay (ELISA). […]

IKK-2 = biological target: T1, IKK-2 (Homo sapiens, UniProt O14920); experiment: IKK-2 filter kinase assay; assay type: biochemical; conditions: 1 μM ATP, 1-53 GST-IκB substrate, read-out: Inhibition of IKK-2 IC50
T1 sequence (O14920 1-756): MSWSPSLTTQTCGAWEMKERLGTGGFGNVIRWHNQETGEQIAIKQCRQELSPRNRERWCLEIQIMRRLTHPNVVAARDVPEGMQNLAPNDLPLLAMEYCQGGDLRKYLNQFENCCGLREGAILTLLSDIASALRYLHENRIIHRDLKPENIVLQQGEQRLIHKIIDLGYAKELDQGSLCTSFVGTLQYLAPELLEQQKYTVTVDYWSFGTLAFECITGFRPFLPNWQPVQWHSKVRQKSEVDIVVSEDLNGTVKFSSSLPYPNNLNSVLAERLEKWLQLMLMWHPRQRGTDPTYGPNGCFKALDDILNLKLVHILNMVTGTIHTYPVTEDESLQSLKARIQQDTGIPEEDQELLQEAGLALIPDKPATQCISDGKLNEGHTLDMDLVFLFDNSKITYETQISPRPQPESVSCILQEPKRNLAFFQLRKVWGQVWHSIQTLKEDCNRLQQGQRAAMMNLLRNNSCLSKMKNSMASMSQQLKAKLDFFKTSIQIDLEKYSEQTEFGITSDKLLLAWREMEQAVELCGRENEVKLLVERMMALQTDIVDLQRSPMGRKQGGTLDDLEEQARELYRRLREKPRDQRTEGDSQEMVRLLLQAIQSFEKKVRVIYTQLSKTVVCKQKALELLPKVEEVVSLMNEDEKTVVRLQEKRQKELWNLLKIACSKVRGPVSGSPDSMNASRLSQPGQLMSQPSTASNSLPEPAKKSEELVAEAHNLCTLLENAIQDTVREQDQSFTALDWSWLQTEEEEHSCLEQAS
Method: The test compounds were dissolved to 10 mM in dimethylsulphoxide (DMSO). The compounds were then diluted 1 in 40 in kinase buffer (50 mM Tris, pH 7.4 containing 0.1 mM EGTA, 0.1 mM sodium orthovanadate and 0.1% β-mercaptoethanol). 1 in 3 serial dilutions were made from this solution with 2.5% DMSO in kinase buffer. 20 μl of compound dilution was added to wells of a 96 well plate in duplicate.
10 μl of a mixture of magnesium acetate, unlabelled ATP, and ^33P-labelled ATP was added to each well made such that the final concentration was 10 mM magnesium acetate, 1 μM ATP and 0.1 μCi ^33P ATP. […] The final reaction volume was 50 μl.
The kinase reactions were incubated at 21° C. for 80 minutes and the reaction stopped by precipitating the protein by the addition of an equal volume (50 μl) of 20% trichloroacetic acid (TCA). The precipitate was allowed to form for 10 minutes and then filtered onto a GF/C unifilter 96 well plate. Each filter was washed twice with approximately 1 ml 2% TCA. The filter plate was dried at 30-40° C. for 60 minutes, 20 μl scintillant was added to each well and the plate sealed and radioactivity counted on a Packard Topcount microplate scintillation counter.

IC50 (IKK-2) [µM] | Structure (SMILES) | IC50 [1] [µM]
0.066 | COCCN(C)Cc1ccc(-c2cc(C(N)=O)c(NC(N)=O)s2)cc1 [Example 56] | 0.45
0.00056 | NC(=O)Nc1sc(-c2ccc(CN(CCO)Cc3ccccc3)cc2)cc1C(N)=O [Example 61, 2-[(Aminocarbonyl)amino]-5-[4-{([N-benzyl-N-(2-hydroxyethyl)]amino)methyl}phenyl]thiophene-3-carboxamide] | 0.34
0.013 | CN(C)Cc1ccc(-c2cc(C(N)=O)c(NC(N)=O)s2)cc1 [Example 5, 2-[(Aminocarbonyl)amino]-5-{4-[dimethylaminomethyl]phenyl}thiophene-3-carboxamide] | 0.12
0.0036 | NC(=O)Nc1sc(-c2ccc(CNCC(F)(F)F)cc2)cc1C(N)=O [Example 1] | 0.42
